Results published in patent US20030100769A1, “Cyclic amidine compounds” (priority 2000, published 2003).

Target: α1β1γδ subtype of nicotinic acetylcholine receptors (Rattus norvegicus, UniProt P18916+P25108+P25109+P25110)
Experiment: biochemical
Assay type: binding
Conditions: for remaining activity at 100 µM: read-out: control % of [3H]-α-Bgt binding at 100 μM of test compound; for remaining activity at 1000 µM: read-out: control % of [3H]-α-Bgt binding at 1,000 μM of test compound
Excerpt: The methods for evaluating the binding capabilities of the compounds at nicotinic acetylcholine receptors are different by subtypes of receptors. The binding capabilities of the compounds at α4β2 nicotinic acetylcholine receptors are examined using rat brain membrane obtained from whole homogenized brain, and determining the inhibiting rate of the compounds against [^3H]-cytisine binding to said brain membrane. Furthermore, the binding capabilities of the compounds at α1β1γδ nicotinic acetylcholine receptors are examined using homogenized rat muscle, and determining the inhibiting rate of the compounds against [^3H]-α-bungarotoxin binding to said muscle homogenate.
Binding Assays at α1β1γδ Subtype of Nicotinic Acetylcholine Receptors
The affinity of the compounds of the present invention to α1β1γδ subtype of nicotinic acetylcholine receptors was measured by the following method, which was modified method described by Garcha H. S., Thomas P., Spivak C.
(1) Preparation of Rat Skeletal Muscles Containing α1β1γδ Subtype of Nicotinic Acetylcholine Receptors
The substantially same animals described in the Biological Experiment 1 were used.
The isolation of α1β1γδ subtype of nicotinic acetylcholine receptors was performed as follow. That is, rat posterior skeletal muscles were isolated just after sacrificed by decapitation, washed with ice-cooled saline solution and then frozen at −80° C. with liquid nitrogen and stored till using. After thawing the frozen muscles, tissue was homogenized ([…]) with buffer solution [2.5 mM of sodium phosphate buffer (pH:7.2), 90 mM of NaCl, 2 mM of KCl, 1 mM of EDTA, 2 mM of benzamidine, 0.1 mM of benzethonium chloride, 0.1 mM of PMSF, 0.01% of sodium azide] in Waring blender (Waring blender 34BL97; WARING PRODUCTS DIVISION DYNAMICS CORPORATION OF AMERICA) for 60 seconds. The homogenate were centrifuged under 20,000×G for 60 minutes at 4° C. The supernatant was separated and the resulting pellet was added to the same buffer (1.5 ml/g wet weight), and homogenized under the same conditions. Triton X100 (2% w/v) was added and the mixture was stirred for 3 hours at 4° C. The centrifugation at 100,000×G for 60 minutes at 4° C. yielded the rat muscle extract as supernatant. This was stored at 4° C. for up to 4 weeks, and used for binding assays at receptors.
(2) Experiments of α1β1γδ Subtype of Nicotinic Acetylcholine Receptors Binding
Receptors binding experiments were performed as follow. That is, the extract of rat muscle containing 600-900 μg of protein was added to test tubes containing test compounds and incubated for 15 minutes at 37° C. Then, to this mixture was added 1 nM of [^3H]-α-bungarotoxin (α-Bgt) and further incubated for 2 hours. The samples were isolated by vacuum filtration onto Whatman GF/B filters, which were prerinsed with 0.5% polyethylenimine just prior to sample filtration, using Brandel multi manifold cell harvester. The filters were rapidly rinsed with washing solution (10 mM of KH2PO4, 150 mM of NaCl, pH 7.2, room temperature) (5×1 ml). The filters were counted in 3 ml of clearsol I (Nacalai Tesque Inc.). The determination of nonspecific binding was incubated in the presence of 1 μM α-Bgt. […] In the receptor binding experiments, said buffer solution was added for adjusting the final concentration of BSA to be 0.05%.
The analyses of the experimental results were conducted by the same way as described in the Biological Experiment 1.

Sequence of α1β1γδ subtype of nicotinic acetylcholine receptors (P25109 24-501): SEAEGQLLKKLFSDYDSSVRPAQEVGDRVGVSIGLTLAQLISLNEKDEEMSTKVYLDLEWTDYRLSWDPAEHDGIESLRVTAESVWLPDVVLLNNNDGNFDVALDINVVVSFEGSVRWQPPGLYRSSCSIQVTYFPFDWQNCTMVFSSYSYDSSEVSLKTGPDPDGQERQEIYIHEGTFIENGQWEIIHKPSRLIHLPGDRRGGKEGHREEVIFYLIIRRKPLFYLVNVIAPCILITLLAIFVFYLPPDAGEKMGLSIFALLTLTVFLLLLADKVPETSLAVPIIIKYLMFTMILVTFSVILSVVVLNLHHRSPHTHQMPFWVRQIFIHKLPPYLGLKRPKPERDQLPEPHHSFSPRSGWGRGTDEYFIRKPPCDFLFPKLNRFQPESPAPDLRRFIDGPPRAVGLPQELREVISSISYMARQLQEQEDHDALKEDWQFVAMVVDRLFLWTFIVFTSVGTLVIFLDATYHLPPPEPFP
Sequence of α1β1γδ subtype of nicotinic acetylcholine receptors (P25110 22-517): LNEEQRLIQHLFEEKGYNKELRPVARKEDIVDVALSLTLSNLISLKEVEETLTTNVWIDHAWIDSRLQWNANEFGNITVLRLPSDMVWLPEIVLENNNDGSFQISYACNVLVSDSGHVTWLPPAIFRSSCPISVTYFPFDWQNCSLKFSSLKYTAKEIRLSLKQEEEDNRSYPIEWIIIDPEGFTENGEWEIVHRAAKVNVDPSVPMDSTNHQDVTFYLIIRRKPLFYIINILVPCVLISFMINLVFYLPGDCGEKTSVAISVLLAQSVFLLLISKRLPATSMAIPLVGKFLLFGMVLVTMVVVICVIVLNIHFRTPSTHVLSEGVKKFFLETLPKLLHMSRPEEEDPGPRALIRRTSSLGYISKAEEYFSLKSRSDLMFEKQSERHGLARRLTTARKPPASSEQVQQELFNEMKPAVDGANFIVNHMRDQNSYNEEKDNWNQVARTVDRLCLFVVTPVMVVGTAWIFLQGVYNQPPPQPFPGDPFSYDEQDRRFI
Sequence of α1β1γδ subtype of nicotinic acetylcholine receptors (P25108 21-457): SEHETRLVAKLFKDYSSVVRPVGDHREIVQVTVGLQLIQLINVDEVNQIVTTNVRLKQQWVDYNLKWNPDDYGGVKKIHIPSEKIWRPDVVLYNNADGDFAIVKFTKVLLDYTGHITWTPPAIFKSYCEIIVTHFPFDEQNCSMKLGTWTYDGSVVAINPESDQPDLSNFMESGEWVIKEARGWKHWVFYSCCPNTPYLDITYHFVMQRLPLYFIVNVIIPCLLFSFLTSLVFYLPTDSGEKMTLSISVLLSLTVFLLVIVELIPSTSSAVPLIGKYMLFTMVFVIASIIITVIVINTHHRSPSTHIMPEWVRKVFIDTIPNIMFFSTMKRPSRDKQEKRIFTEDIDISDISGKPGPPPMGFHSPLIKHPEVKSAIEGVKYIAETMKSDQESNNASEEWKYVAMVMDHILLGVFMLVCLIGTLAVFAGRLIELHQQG

Clc1ccc(C2=NCCCN2)cn1 [Compound 2, 2-(6-chloro-3-pyridyl)-1,4,5,6-tetrahydropyrimidine]
remaining activity at 100 µM: 34% | remaining activity at 1000 µM: 6%

CN1CCN=C1c1ccc(Cl)nc1 [Compound 3, 2-(6-chloro-3-pyridyl)-1-methyl-2-imidazoline]
remaining activity at 100 µM: 34% | remaining activity at 1000 µM: 5%

Clc1ncc(C2=NCCCN2)s1 [Compound 22, 2-(2-chloro-5-thiazolyl)-1,4,5,6-tetrahydropyrimidine]
remaining activity at 100 µM: 23% | remaining activity at 1000 µM: -4%
